Source: US20250099536A1, “PRISTINAMYCIN IA AND FLOPRISTIN COMBINATIONS IN TREATING OR PREVENTING BACTERIAL INFECTIONS” (AIMMAX THERAPEUTICS, INC., priority 2021, published 2025)
Values after ≈ are worked out from the molar mass of the structure shown. Read-outs that look alike come from different tables or passages of the source. Each block holds one compound with its values, some of them ahead of it. Positions of bridges follow the written chain, without caps; N, C: chain ends. Non-standard residues stand in square brackets, D forms with d. Residues, ends and D or L forms follow the SMILES beside them. *: point of attachment. NMePhe(4-NMe2) = CN[C@@H](Cc1ccc(N(C)C)cc1)C(=O)O; Pip(4-oxo) = O=C1CCN[C@H](C(=O)O)C1; Picolinoyl(3-OH) = O=C(c1ncccc1O)*; Phg = N[C@H](C(=O)O)c1ccccc1; dAbu = CC[C@@H](N)C(=O)O

How the values were obtained:
[1] = tested on: Neisseria gonorrhoeae; assay: Broth microdilution MIC across streptogramin B:A ratios; format: cell-based
[2] = tested on: Streptococcus pneumoniae; assay: as above; format: cell-based
[3] = tested on: Staphylococcus aureus; assay: as above; format: cell-based
[4] = tested on: Mycoplasma genitalium; assay: MIC across streptogramin B:A ratios (CLSI mycoplasma method); format: cell-based; conditions: 10 strains and isolates
[5] = tested on: Streptococcus pneumoniae; assay: MBC assay; format: cell-based; conditions: S. pneumoniae strains evaluated
[6] = tested on: S. aureus BAA-1717 strain; assay: MIC against the infecting strain of the thigh model; conditions: Staphylococcus aureus, BAA1717

MIC ([1]; strain ATCC 49226): 0.12 µg/mL | MIC ([1]; strain CDC 0167): 0.03 µg/mL | MIC ([1]; strain CDC 0175): 0.03 µg/mL | MIC ([1]; strain CDC 0177): 0.06 µg/mL | MIC ([1]; strain CDC 0181): 0.12 µg/mL | MIC ([1]; strain CDC 0194): 0.06 µg/mL | MIC ([1]; strain MMX 6921): 0.12 µg/mL | MIC ([1]; strain WHO F): 0.015 µg/mL | MIC ([1]; strain WHO G): 0.12 µg/mL | MIC ([1]; strain WHO K): 0.25 µg/mL | MIC ([1]; strain WHO L): 0.12 µg/mL | MIC ([1]; strain WHO M): 0.12 µg/mL | MIC ([1]; strain WHO N): 0.12 µg/mL | MIC ([1]; strain WHO O): 0.12 µg/mL | MIC ([1]; strain WHO P): 0.5 µg/mL | MIC ([1]; strain WHO U): 0.12 µg/mL | MIC ([1]; strain WHO V): 0.25 µg/mL | MIC ([1]; strain WHO W): 0.12 µg/mL | MIC ([1]; strain WHO X): 0.12 µg/mL | MIC ([1]; strain WHO Y): 0.12 µg/mL | MIC ([2]; strain ATCC 49619): 2 µg/mL | MIC ([2]; strain ATCC 700677): 8 µg/mL | MIC ([2]; strain MMX 3031): 4 µg/mL | MIC ([2]; strain MMX 3033): 4 µg/mL | MIC ([2]; strain MMX 4937): 2 µg/mL | MIC ([3]; strain ATCC 29213): 1 µg/mL | MIC ([3]; strain ATCC BAA 977): 1 µg/mL | MIC ([3]; strain ATCC BAA-976): 0.5 µg/mL | MIC ([3]; strain MMX 2336): 0.5 µg/mL | MIC ([3]; strain MMX 3035): 0.5 µg/mL | MIC ([3]; strain MMX 3037): 0.25 µg/mL | MIC ([3]; strain MMX 3095): 1 µg/mL | MIC ([3]; strain MMX 3098): 1 µg/mL | MIC ([3]; strain MMX 3885): 0.5 µg/mL | MIC ([3]; strain MMX 3983): 0.5 µg/mL | MIC ([3]; strain MMX 4670): 0.25 µg/mL | MIC ([3]; strain MMX 5787): 2 µg/mL | MIC ([3]; strain NRS 271): 2 µg/mL | MIC ([3]; strain NRS 382): 1 µg/mL | MIC ([3]; strain NRS 384): 1 µg/mL | MIC range [4]: 0.015 to 0.5 µg/mL
SMILES: CC1=C\[C@@H](O)C[C@@H](F)Cc2nc(co2)C(=O)N2CCC[C@@H]2C(=O)O[C@H](C(C)C)[C@H](C)/C=C/C(=O)NC\C=C\1 [CBA1 0:100, flopristin]
Strains against which bactericidal (MBC divided by MIC ≤4) [5]: 5 out of the 5

MIC ([1]; strain ATCC 49226): >64 µg/mL | MIC ([1]; strain CDC 0167): >64 µg/mL | MIC ([1]; strain CDC 0175): >64 µg/mL | MIC ([1]; strain CDC 0177): >64 µg/mL | MIC ([1]; strain CDC 0181): >64 µg/mL | MIC ([1]; strain CDC 0194): 32 µg/mL | MIC ([1]; strain MMX 6921): >64 µg/mL | MIC ([1]; strain WHO F): 32 µg/mL | MIC ([1]; strain WHO G): >64 µg/mL | MIC ([1]; strain WHO K): >64 µg/mL | MIC ([1]; strain WHO L): 64 µg/mL | MIC ([1]; strain WHO M): 64 µg/mL | MIC ([1]; strain WHO N): >64 µg/mL | MIC ([1]; strain WHO O): 64 µg/mL | MIC ([1]; strain WHO P): >64 µg/mL | MIC ([1]; strain WHO U): >64 µg/mL | MIC ([1]; strain WHO V): >64 µg/mL | MIC ([1]; strain WHO W): 64 µg/mL | MIC ([1]; strain WHO X): >64 µg/mL | MIC ([1]; strain WHO Y): 32 µg/mL | MIC ([2]; strain ATCC 49619): 1 µg/mL | MIC ([2]; strain ATCC 700677): 32 µg/mL | MIC ([2]; strain MMX 3031): 0.5 µg/mL | MIC ([2]; strain MMX 3033): 2 µg/mL | MIC ([2]; strain MMX 4937): 1 µg/mL | MIC ([3]; strain ATCC 29213): 8 µg/mL | MIC ([3]; strain ATCC BAA 977): 16 µg/mL | MIC ([3]; strain ATCC BAA-976): 8 µg/mL | MIC ([3]; strain MMX 2336): 8 µg/mL | MIC ([3]; strain MMX 3035): >64 µg/mL | MIC ([3]; strain MMX 3037): >64 µg/mL | MIC ([3]; strain MMX 3095): 8 µg/mL | MIC ([3]; strain MMX 3098): 8 µg/mL | MIC ([3]; strain MMX 3885): 8 µg/mL | MIC ([3]; strain MMX 3983): >64 µg/mL | MIC ([3]; strain MMX 4670): >64 µg/mL | MIC ([3]; strain MMX 5787): >64 µg/mL | MIC ([3]; strain NRS 271): 8 µg/mL | MIC ([3]; strain NRS 382): >64 µg/mL | MIC ([3]; strain NRS 384): 8 µg/mL | MIC range [4]: 2 to 16 µg/mL
SMILES: CC[C@H]1NC(=O)[C@@H](NC(=O)c2ncccc2O)[C@@H](C)OC(=O)[C@H](c2ccccc2)NC(=O)[C@@H]2CC(=O)CCN2C(=O)[C@H](Cc2ccc(N(C)C)cc2)N(C)C(=O)[C@@H]2CCCN2C1=O [CBA1 100:0, pristinamycin IA] ({Picolinoyl(3-OH)}-T[dAbu]P[NMePhe(4-NMe2)][Pip(4-oxo)][Phg]; ester 1-C)
Strains against which bactericidal (MBC divided by MIC ≤4) [5]: 2 out of the 4

MIC [6]: 2 µg/mL (≈ 5.93 µM)
SMILES: CC(=O)NC[C@H]1CN(c2ccc(N3CCOCC3)c(F)c2)C(=O)O1 [linezolid]

The remaining lines, values behind:

SMILES: CC[C@H]1OC(=O)[C@H](C)[C@@H](O[C@H]2C[C@@](C)(OC)[C@@H](O)[C@H](C)O2)[C@H](C)[C@@H](O[C@@H]2O[C@H](C)C[C@H](N(C)C)[C@H]2O)[C@](C)(O)C[C@@H](C)CN(C)[C@H](C)[C@@H](O)[C@]1(C)O [AZI, Azithromycin, reference compound]
MIC ([1]; Neisseria gonorrhoeae, ATCC49226, strain ATCC 49226, read-out: MIC): 0.5 µg/mL | MIC ([1]; Neisseria gonorrhoeae, strain CDC 0167, read-out: MIC): 16 µg/mL | MIC ([1]; Neisseria gonorrhoeae, strain CDC 0175, read-out: MIC): 16 µg/mL | MIC ([1]; Neisseria gonorrhoeae, strain CDC 0177, read-out: MIC): 4 µg/mL | MIC ([1]; Neisseria gonorrhoeae, strain CDC 0181, read-out: MIC): > 16 µg/mL | MIC ([1]; Neisseria gonorrhoeae, strain CDC 0194, read-out: MIC): 0.5 µg/mL | MIC ([1]; Neisseria gonorrhoeae, strain MMX 6921, read-out: MIC): 16 µg/mL | MIC ([1]; Neisseria gonorrhoeae, strain WHO F, read-out: MIC): 0.12 µg/mL | MIC ([1]; Neisseria gonorrhoeae, strain WHO G, read-out: MIC): 0.25 µg/mL | MIC ([1]; Neisseria gonorrhoeae, strain WHO K, read-out: MIC): 0.5 µg/mL | MIC ([1]; Neisseria gonorrhoeae, strain WHO L, read-out: MIC): 0.5 µg/mL | MIC ([1]; Neisseria gonorrhoeae, strain WHO M, read-out: MIC): 0.5 µg/mL | MIC ([1]; Neisseria gonorrhoeae, strain WHO N, read-out: MIC): 0.25 µg/mL | MIC ([1]; Neisseria gonorrhoeae, strain WHO O, read-out: MIC): 0.5 µg/mL | MIC ([1]; Neisseria gonorrhoeae, strain WHO P, read-out: MIC): 8 µg/mL | MIC ([1]; Neisseria gonorrhoeae, strain WHO U, read-out: MIC): 8 µg/mL | MIC ([1]; Neisseria gonorrhoeae, strain WHO V, read-out: MIC): > 16 µg/mL | MIC ([1]; Neisseria gonorrhoeae, strain WHO W, read-out: MIC): 0.5 µg/mL | MIC ([1]; Neisseria gonorrhoeae, strain WHO X, read-out: MIC): 1 µg/mL | MIC ([1]; Neisseria gonorrhoeae, strain WHO Y, read-out: MIC): 1 µg/mL

SMILES: CN[C@H](CC(C)C)C(=O)N[C@H]1C(=O)N[C@@H](CC(N)=O)C(=O)N[C@H]2C(=O)N[C@H]3C(=O)N[C@H](C(=O)N[C@H](C(=O)O)c4cc(O)cc(O)c4-c4cc3ccc4O)[C@H](O)c3ccc(c(Cl)c3)Oc3cc2cc(c3O[C@@H]2O[C@H](CO)[C@@H](O)[C@H](O)[C@H]2O[C@H]2C[C@](C)(N)[C@H](O)[C@H](C)O2)Oc2ccc(cc2Cl)[C@H]1O [vancomycin]
MIC [6]: 1 µg/mL (≈ 0.69 µM)
